ChEMBL document CHEMBL1201862, “PubChem BioAssay data set” (2004)
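All cell lines were grown in 96-well plates and treated with compound for 48 hours. Here, GI50 denotes the concentration required for 50% inhibition of growth.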 Calls of active or inactive are those of the source. No stated cut-off is given here; in the data, active = GI50 up to about 1.1 µM and inactive = higher.

What was measured:
Assay in all cases: growth of human tumour cells (NCI), 48 h
786-0 = tested on: 786-0
ACHN = tested on: ACHN
CAKI-1 = tested on: CAKI-1
COLO 205 = tested on: COLO 205
DU-145 = tested on: DU-145
HCT-15 = tested on: HCT-15
HOP-62 = tested on: HOP-62
HT-29 = tested on: HT-29
IGROV-1 = tested on: IGROV-1
K562 = tested on: K562
KM12 = tested on: KM12
MDA-MB-231 = tested on: MDA-MB-231
NCI-H460 = tested on: NCI-H460
NCI/ADR-RES = tested on: NCI/ADR-RES
OVCAR-4 = tested on: OVCAR-4
PC-3 = tested on: PC-3
RPMI-8226 = tested on: RPMI-8226
SK-MEL-5 = tested on: SK-MEL-5
SK-OV-3 = tested on: SK-OV-3
UACC-62 = tested on: UACC-62

Structure (SMILES) | GI50 (786-0) | GI50 (ACHN) | GI50 (CAKI-1) | GI50 (COLO 205) | GI50 (DU-145) | GI50 (HCT-15) | GI50 (HOP-62) | GI50 (HT-29) | GI50 (IGROV-1) | GI50 (K562) | GI50 (KM12) | GI50 (MDA-MB-231) | GI50 (NCI-H460) | GI50 (NCI/ADR-RES) | GI50 (OVCAR-4) | GI50 (PC-3) | GI50 (RPMI-8226) | GI50 (SK-MEL-5) | GI50 (SK-OV-3) | GI50 (UACC-62)
COc1ccc(Cl)cc1NC(=O)c1cccc([N+](=O)[O-])c1O | 16.8 µM (inactive) | 12.4 µM (inactive) | 16.2 µM (inactive) | 13.5 µM (inactive) | 23.7 µM (inactive) | 21.8 µM | 13.4 µM (inactive) | 19.8 µM (inactive) | 8.34 µM (inactive) | 32.1 µM (inactive) | 19.5 µM (inactive) | 24.8 µM (inactive) | 15.7 µM (inactive) | 10 µM (inactive) | 10.2 µM (inactive) | 9.14 µM (inactive) | 5.07 µM (inactive) | 4 µM (inactive) | 24.7 µM (inactive) | 6.82 µM (inactive)
OC(O)(C(F)(F)F)C(F)(F)F | > 100 µM (inactive) | > 100 µM (inactive) | > 100 µM (inactive) | > 100 µM (inactive) | > 100 µM (inactive) | > 100 µM | > 100 µM (inactive) | > 100 µM (inactive) | > 100 µM (inactive) | > 100 µM (inactive) | > 100 µM (inactive) | > 100 µM (inactive) | > 100 µM (inactive) | > 100 µM (inactive) | > 100 µM (inactive) | > 100 µM (inactive) | > 100 µM (inactive) | > 100 µM (inactive) | > 100 µM (inactive) | > 100 µM (inactive)
COc1ccc(/C=N/n2c(-c3ccccc3)n[nH]c2=O)c(OC)c1 | 30.5 µM (inactive) | 29 µM (inactive) | 41.2 µM (inactive) | > 100 µM (inactive) | > 100 µM (inactive) | > 100 µM | 29.8 µM (inactive) | 26.6 µM (inactive) | 36.9 µM (inactive) | > 100 µM (inactive) | 45.8 µM (inactive) | 51.5 µM (inactive) | 51.1 µM (inactive) | 29.2 µM (inactive) | 27 µM (inactive) | 50.1 µM (inactive) | > 100 µM (inactive) | > 68.9 µM (inactive) | 31.8 µM (inactive) | 43.9 µM (inactive)
CC1=NOC2(C1)C(=O)Nc1ccccc12 (stereo not drawn) | > 100 µM (inactive) | > 100 µM (inactive) | 30.3 µM (inactive) | > 100 µM (inactive) | > 100 µM (inactive) | > 100 µM | > 100 µM (inactive) | > 100 µM (inactive) | > 100 µM (inactive) | > 100 µM (inactive) | > 100 µM (inactive) | > 100 µM (inactive) | > 100 µM (inactive) | 44.5 µM (inactive) | > 100 µM (inactive) | > 100 µM (inactive) | > 100 µM (inactive) | 60.5 µM (inactive) | > 100 µM (inactive) | > 100 µM (inactive)
COc1cccc2c1C(=O)c1c(O)c3c(c(O)c1C2=O)C[C@@](O)(C(=O)CO)C[C@@H]3OC1CC2C(OCN3CN2COC2C(C)OC(O[C@H]4C[C@](O)(C(=O)CO)Cc5c(O)c6c(c(O)c54)C(=O)c4c(OC)cccc4C6=O)CC23)C(C)O1 (stereo partly drawn) | 0.02 µM (active) | 0.0634 µM (active) | 0.0927 µM (active) | 0.0614 µM (active) | 0.0265 µM (active) | 0.161 µM | 0.04 µM (active) | 0.0428 µM (active) | 0.0266 µM (active) | 0.0684 µM (active) | 0.0635 µM (active) | 0.0741 µM (active) | 0.00433 µM (active) | 0.251 µM (active) | 0.237 µM (active) | 0.0929 µM (active) | 0.0184 µM (active) | 0.0614 µM (active) | 0.0681 µM (active) | 0.0345 µM (active)
Nc1ncnc2nc(N3CCN(CCO)CC3)[nH]c12 | > 100 µM (inactive) | > 100 µM (inactive) | > 100 µM (inactive) | > 100 µM (inactive) | > 100 µM (inactive) | > 100 µM | > 100 µM (inactive) | > 100 µM (inactive) | > 100 µM (inactive) | > 100 µM (inactive) | > 100 µM (inactive) | > 100 µM (inactive) | > 100 µM (inactive) | > 100 µM (inactive) | > 100 µM (inactive) | > 100 µM (inactive) | > 100 µM (inactive) | > 100 µM (inactive) | > 100 µM (inactive) | > 100 µM (inactive)
CCN(CC(COc1ccc2c(c1)[n+]([O-])nc(N)[n+]2[O-])OC(C)=O)C(C)=O (stereo not drawn) | 93.1 µM (inactive) | > 100 µM (inactive) | > 100 µM (inactive) | 32.2 µM (inactive) | > 10 µM (inactive) | > 100 µM | 45.9 µM (inactive) | > 100 µM (inactive) | 29.1 µM (inactive) | 14.1 µM (inactive) | 95.5 µM (inactive) | > 100 µM (inactive) | > 10 µM (inactive) | > 100 µM (inactive) | 50.5 µM (inactive) | 76.9 µM (inactive) | > 100 µM (inactive) | 32 µM (inactive) | 15.2 µM (inactive) | 29.6 µM (inactive)
O=C(Cc1ccccc1)N/N=C(/CCN1CCCC1)CC(c1ccccc1)c1c(O)c2ccccc2oc1=O (stereo not drawn) | > 100 µM (inactive) | > 100 µM (inactive) | > 100 µM (inactive) | 23.9 µM (inactive) | > 100 µM (inactive) | 72.4 µM |  | 75.9 µM (inactive) | > 100 µM (inactive) | > 100 µM (inactive) | > 100 µM (inactive) | 26 µM (inactive) |  | 55.8 µM (inactive) | > 100 µM (inactive) | > 100 µM (inactive) | 39.7 µM (inactive) | > 100 µM (inactive) | > 100 µM (inactive) | 63.7 µM (inactive)
O=C1Cc2c(-c3cccs3)cc(-c3ccccc3)nc2-c2ccccc2N1 | 21.9 µM (inactive) | 50.2 µM (inactive) | 21.6 µM (inactive) | 43.4 µM (inactive) | > 100 µM (inactive) | 40.1 µM | 24.7 µM (inactive) | 10.8 µM (inactive) | 13.7 µM (inactive) | > 100 µM (inactive) | 14 µM (inactive) | 9.48 µM (inactive) | 24 µM (inactive) | 18.5 µM (inactive) | 0.855 µM (active) | 47.1 µM (inactive) | > 100 µM (inactive) | 19.5 µM (inactive) | 24.4 µM (inactive) | > 100 µM (inactive)
C[C@]12CC[C@@H]3c4ccc(OC(=O)c5ccccc5)cc4CC[C@H]3[C@@H]1CCC2OC(=O)c1cccc2c(=O)c3ccccc3[nH]c12 (stereo partly drawn) | 17.5 µM (inactive) | 22.3 µM (inactive) | 27 µM (inactive) | 16.9 µM (inactive) | 19.8 µM (inactive) | 13.1 µM | 22.3 µM (inactive) | 7.21 µM (inactive) | 16.5 µM (inactive) | 60 µM (inactive) | 15.4 µM (inactive) | 20.8 µM (inactive) | 17.4 µM (inactive) | 18 µM (inactive) | 15.6 µM (inactive) | 13.4 µM (inactive) | 29.9 µM (inactive) | 24.1 µM (inactive) | 30.4 µM (inactive) | 13.3 µM (inactive)
O=c1c2cccnc2[nH]c2ccc3scnc3c12 | 5.58 µM (inactive) | 1.87 µM (inactive) | > 10 µM (inactive) | 5.12 µM (inactive) | > 10 µM (inactive) | 4.92 µM | > 10 µM (inactive) | 4.72 µM (inactive) | 4.81 µM (inactive) |  | 6.7 µM (inactive) | > 10 µM (inactive) | 7.01 µM (inactive) | 8.91 µM (inactive) | 9.35 µM (inactive) | > 10 µM (inactive) | > 10 µM (inactive) | 7.01 µM (inactive) | > 10 µM (inactive) | > 10 µM (inactive)
Cc1c(C(=O)OCc2ccccc2)[n+]([O-])c2cc(Cl)c(Cl)cc2[n+]1[O-] | 16 µM (inactive) | 21.4 µM (inactive) | 13 µM (inactive) | 18.2 µM (inactive) | 14.5 µM (inactive) | 16.1 µM | 14.2 µM (inactive) | 17.1 µM (inactive) | 5.83 µM (inactive) | 23.6 µM (inactive) | 10.5 µM (inactive) | 19.5 µM (inactive) | 14.2 µM (inactive) | 18.2 µM (inactive) | 14 µM (inactive) | 15.7 µM (inactive) | 6.46 µM (inactive) | 15 µM (inactive) | 22.5 µM (inactive) | 14.9 µM (inactive)
O=C(N/N=C/c1ccc(Br)cc1)N/N=C/c1ccc(Br)cc1 | 3.92 µM (inactive) | 4.94 µM (inactive) | 4.66 µM (inactive) | 9.44 µM (inactive) | 9.12 µM (inactive) | 16.8 µM | 5.56 µM (inactive) | 11.4 µM (inactive) | 4.72 µM (inactive) | 16.6 µM (inactive) | 17.1 µM (inactive) | 3.38 µM (inactive) |  | 5.6 µM (inactive) | 2.37 µM (inactive) | 17.3 µM (inactive) | 10.6 µM (inactive) | 14.1 µM (inactive) | 2.43 µM (inactive) | 12.6 µM (inactive)
CC(C)(C)OC(=O)C1CC[C@@H](CC(=O)Oc2ccc([N+](=O)[O-])cc2)N1 (stereo partly drawn) | > 100 µM (inactive) | > 100 µM (inactive) | > 100 µM (inactive) | > 100 µM (inactive) | > 100 µM (inactive) | > 100 µM |  |  | > 100 µM (inactive) |  | > 100 µM (inactive) | > 100 µM (inactive) | > 100 µM (inactive) | > 100 µM (inactive) | > 100 µM (inactive) | > 100 µM (inactive) | > 100 µM (inactive) | > 100 µM (inactive) | > 100 µM (inactive) | > 100 µM (inactive)
